Data from patent publication US20230233569A1 (Revolution Medicines, Inc., priority 2020, published 2023).

Key:
NCI-H358 (K-Ras G12C) = assay: CellTiter-Glo cell viability assay, 5-day treatment; type: cell-based; details: Homo sapiens, NCI-H358, H358, K-Ras G12C; read-out: Additional H358 Cell Viability assay data (K-Ras G12C, IC50)
Outline: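 Luminescence read-out after 5 days of compound exposure, with plates first brought to room temperature for roughly 30 minutes. Values are percent of averaged DMSO wells, fitted by four-parameter logistic regression.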

KRAS G12V = KRAS G12V (Homo sapiens, UniProt P01116+P62937, G12V); assay: Disruption of BRAF RBD interaction with Ras (FRET / MOA assay, with Cyclophilin A); type: biochemical; details: KRAS G12V; read-out: KRAS G12V FRET data IC50
Outline: (§1)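 Cyclophilin A-dependent ternary complex assay. K-Ras loaded with nucleotide; BRAF RBD as effector. Cpd top 30 μM final, 3 h at 25 °C. Readout: TR-FRET ratio, IC50.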

KRAS G13D = KRAS G13D (Homo sapiens, UniProt P01116+P62937, G13D); assay: as above; type: biochemical; details: KRAS G13D; read-out: KRAS G13D FRET data IC50
Outline: as §1

KRAS WT = KRAS WT (Homo sapiens, UniProt P01116+P62937); assay: as above; type: biochemical; details: KRAS WT; read-out: KRAS WT FRET data IC50
Outline: as §1

NRAS G12C = NRAS G12C (Homo sapiens, UniProt P01111+P62937, G12C); assay: as above; type: biochemical; details: NRAS G12C; read-out: NRAS G12C FRET data IC50
KRAS G13C = KRAS G13C (Homo sapiens, UniProt P01116+P62937, G13C); assay: as above; type: biochemical; details: KRAS G13C; read-out: KRAS G13C FRET data IC50
Outline: as §1

KRAS G12S = KRAS G12S (Homo sapiens, UniProt P01116+P62937, G12S); assay: as above; type: biochemical; details: read-out: KRAS G12S FRET data, IC50
Outline: as §1

KRAS G12C = KRAS G12C (Homo sapiens, UniProt P01116+P62937, G12C); assay: as above; type: biochemical; details: KRAS G12C; read-out: KRAS G12C FRET data IC50
Outline: as §1

KRAS G12D = KRAS G12D (Homo sapiens, UniProt P01116+P62937, G12D); assay: as above; type: biochemical; details: read-out: KRAS G12D FRET data, IC50
Outline: as §1

[1] = tested on: K-Ras G12C (NCI-H358 cells); assay: Potency assay: pERK (AlphaLISA SureFire or In-Cell Western); type: cell-based; details: Homo sapiens, NCI-H358; H358 KRAS G12C; read-out: pERK EC50
Experimental: (§2) The purpose of this assay is to measure the ability of test compounds to inhibit K-Ras in cells. […] This procedure measures a decrease in cellular pERK in response to test compounds.
(§3) NCI-H358 cells were grown and maintained using media and procedures recommended by the ATCC. On the day prior to compound addition, cells were plated in 384-well cell culture plates (40 μl/well) and grown overnight in a 37° C., 5% CO2 incubator. Test compounds were prepared in 10, 3-fold dilutions in DMSO, with a high concentration of 10 mM. On the day of assay, 40 nL of test compound was added to each well of cell culture plate using an Echo550 liquid handler (LabCyte®). Concentrations of test compound were tested in duplicate. After compound addition, cells were incubated 4 hours at 37° C., 5% CO2. Following incubation, culture medium was removed and cells were washed once with phosphate buffered saline.
(§4) In some experiments, cellular pERK level was determined using the AlphaLISA SureFire Ultra p-ERK1/2 Assay Kit (PerkinElmer). Cells were lysed in 25 μL lysis buffer, with shaking at 600 RPM at room temperature. […] After a 2-hour incubation in the dark, 5 μL donor mix was added, plate was sealed, and incubated 2 hours at room temperature. Signal was read on an Envision plate reader (PerkinElmer) using standard AlphaLISA settings. Analysis of raw data was carried out in Excel (Microsoft) and Prism (GraphPad). Signal was plotted vs. the decadal logarithm of compound concentration, and IC50 was determined by fitting a 4-parameter sigmoidal concentration response model.
In other experiments, cellular pERK was determined by In-Cell Western. […] Fixed cells were washed 4 times for 5 minutes with TBS containing 0.1% Triton X-100 (TBST) and then blocked with 100 μL Odyssey blocking buffer (LI-COR) for 60 minutes at room temperature. […] Cells were washed 4 times for 5 minutes with TBST. Secondary antibody (IR-800CW rabbit, LI-COR, diluted 1:800) and DNA stain DRAQ5 (LI-COR, diluted 1:2000) were added and incubated 1-2 hours at room temperature. Cells were washed 4 times for 5 minutes with TBST. Plates were scanned on a LI-COR Odyssey CLx Imager. Analysis of raw data was carried out in Excel (Microsoft) and Prism (GraphPad). Signal was plotted vs. the decadal logarithm of compound concentration, and IC50 was determined by fitting a 4-parameter sigmoidal concentration response model.
as §2
as §3, with “mM. On day of” for “mM. On the day of”, “assay, 40 nl of test” for “assay, 40 nL of test”
as §4, with “μl” for “μL”, “sealed” for “sealed,”

NRAS Q61K = NRAS Q61K (Homo sapiens, UniProt P01111+P62937, Q61K); assay: Disruption of BRAF RBD interaction with Ras (FRET / MOA assay, with Cyclophilin A); type: biochemical; details: NRAS Q61K; read-out: NRAS Q61K FRET data IC50
Outline: (§5)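 TR-FRET in 25 mM HEPES pH 7.3, 100 mM NaCl, 5 mM MgCl2, 0.1% BSA: 25 μM Cyclophilin A, 12.5 nM His6-Ras-GMPPNP, 50 nM GST-BRAF RBD with compound (10-point 3-fold series from 30 μM), 3 h at 25° C. Anti-His Eu/anti-GST APC added, 1.5 h more; IC50 from decreased FRET ratio versus DMSO.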

NRAS Q61R = NRAS Q61R (Homo sapiens, UniProt P01111+P62937, Q61R); assay: as above; type: biochemical; details: NRAS Q61R; read-out: NRAS Q61R FRET data IC50
Outline: as §5

KRAS G13C, sequence (P01116 1-169 isoform P01116-2 G13C): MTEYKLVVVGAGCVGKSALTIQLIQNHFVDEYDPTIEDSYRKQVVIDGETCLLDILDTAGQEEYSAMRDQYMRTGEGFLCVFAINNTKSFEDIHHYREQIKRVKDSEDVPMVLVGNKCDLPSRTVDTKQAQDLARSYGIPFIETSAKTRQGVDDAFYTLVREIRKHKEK
KRAS G13C, sequence (P62937 whole entry): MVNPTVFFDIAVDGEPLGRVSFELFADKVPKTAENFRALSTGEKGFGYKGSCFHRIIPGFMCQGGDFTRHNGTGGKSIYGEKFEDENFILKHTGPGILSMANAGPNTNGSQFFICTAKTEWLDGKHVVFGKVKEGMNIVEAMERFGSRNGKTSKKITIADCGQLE
KRAS G12S, sequence (P01116 1-169 isoform P01116-2 G12S limits assumed): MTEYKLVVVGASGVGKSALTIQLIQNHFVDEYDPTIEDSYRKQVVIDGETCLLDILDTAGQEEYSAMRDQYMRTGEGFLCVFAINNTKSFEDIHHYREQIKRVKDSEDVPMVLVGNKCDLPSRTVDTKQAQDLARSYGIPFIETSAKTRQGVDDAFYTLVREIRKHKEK
KRAS G12S, sequence (P62937 whole entry): as the sequence (P62937 whole entry) above
KRAS G12C, sequence (P01116 1-169 isoform P01116-2 G12C): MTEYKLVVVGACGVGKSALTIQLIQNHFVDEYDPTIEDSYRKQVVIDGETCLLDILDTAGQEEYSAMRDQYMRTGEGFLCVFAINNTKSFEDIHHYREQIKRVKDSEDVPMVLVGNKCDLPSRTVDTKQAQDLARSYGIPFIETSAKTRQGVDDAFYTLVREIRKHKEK
KRAS G12C, sequence (P62937 whole entry): as the sequence (P62937 whole entry) above
KRAS G13D, sequence (P01116 1-169 isoform P01116-2 G13D limits assumed): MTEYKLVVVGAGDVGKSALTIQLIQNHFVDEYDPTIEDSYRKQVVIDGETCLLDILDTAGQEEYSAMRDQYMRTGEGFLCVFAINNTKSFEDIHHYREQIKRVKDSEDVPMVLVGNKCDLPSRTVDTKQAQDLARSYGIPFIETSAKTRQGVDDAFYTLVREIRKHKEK
KRAS G13D, sequence (P62937 whole entry): as the sequence (P62937 whole entry) above
NRAS Q61R, sequence (P01111 whole entry Q61R): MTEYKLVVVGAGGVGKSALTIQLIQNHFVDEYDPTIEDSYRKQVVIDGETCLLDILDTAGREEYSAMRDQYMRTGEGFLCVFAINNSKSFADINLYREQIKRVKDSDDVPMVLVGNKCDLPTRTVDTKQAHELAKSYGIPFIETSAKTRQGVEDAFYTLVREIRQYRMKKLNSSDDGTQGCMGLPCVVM
NRAS Q61R, sequence (P62937 whole entry): as the sequence (P62937 whole entry) above
KRAS WT, sequence (P01116 1-169 isoform P01116-2 limits assumed): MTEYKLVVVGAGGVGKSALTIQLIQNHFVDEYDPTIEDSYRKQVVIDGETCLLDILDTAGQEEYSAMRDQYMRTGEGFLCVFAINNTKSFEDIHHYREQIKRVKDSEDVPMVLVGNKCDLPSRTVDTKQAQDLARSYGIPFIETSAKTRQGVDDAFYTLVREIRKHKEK
KRAS WT, sequence (P62937 whole entry): as the sequence (P62937 whole entry) above
NRAS Q61K, sequence (P01111 whole entry Q61K): as the sequence (P01111 whole entry Q61R) above, with R61K counted along it
NRAS Q61K, sequence (P62937 whole entry): as the sequence (P62937 whole entry) above
NRAS G12C, sequence (P01111 whole entry G12C): as the sequence (P01111 whole entry Q61R) above, with G12C, R61Q counted along it
NRAS G12C, sequence (P62937 whole entry): as the sequence (P62937 whole entry) above
KRAS G12D, sequence (P01116 1-169 isoform P01116-2 G12D limits assumed): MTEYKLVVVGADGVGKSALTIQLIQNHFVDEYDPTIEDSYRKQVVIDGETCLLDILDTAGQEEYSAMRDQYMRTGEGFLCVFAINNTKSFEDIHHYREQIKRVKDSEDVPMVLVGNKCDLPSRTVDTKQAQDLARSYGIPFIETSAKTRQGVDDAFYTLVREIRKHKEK
KRAS G12D, sequence (P62937 whole entry): as the sequence (P62937 whole entry) above
KRAS G12V, sequence (P01116 1-169 isoform P01116-2 G12V limits assumed): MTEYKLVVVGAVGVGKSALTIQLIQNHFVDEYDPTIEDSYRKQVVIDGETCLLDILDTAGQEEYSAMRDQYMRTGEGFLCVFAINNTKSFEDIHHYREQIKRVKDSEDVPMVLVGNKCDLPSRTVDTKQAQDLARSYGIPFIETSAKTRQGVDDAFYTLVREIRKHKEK
KRAS G12V, sequence (P62937 whole entry): as the sequence (P62937 whole entry) above

| Structure (SMILES) | IC50 (NCI-H358 (K-Ras G12C)) [µM] | IC50 (KRAS G12V) [µM] | IC50 (KRAS G13D) [µM] | IC50 (KRAS WT) [µM] | IC50 (NRAS G12C) [µM] | IC50 (KRAS G13C) [µM] | IC50 (KRAS G12S) [µM] | IC50 (KRAS G12C) [µM] | IC50 (KRAS G12D) [µM] | EC50 [1] [µM] | IC50 (NRAS Q61K) [µM] | IC50 (NRAS Q61R) [µM] |
| --- | --- | --- | --- | --- | --- | --- | --- | --- | --- | --- | --- | --- |
| C=CC(=O)N(C)CCN(C)C(=O)N(C)[C@H](C(=O)N[C@H]1Cc2nc(cs2)-c2ccc3c(c2)c(c(-c2cccnc2[C@H](C)OCC)n3CC)CC(C)(C)COC(=O)[C@@H]2CCCN(N2)C1=O)C(C)C [Example A437] | 0.01 to 0.1 | 0.1 to 1 | 1 to 10 | 0.1 to 1 | 0.01 to 0.1 | 0.1 to 1 | 0.1 to 1 | 0.01 to 0.1 | 1 to 10 | < 5 |  |  |
| CCn1c(-c2cccnc2[C@H](C)OC)c2c3cc(ccc31)-c1cccc(c1)C[C@H](NC(=O)[C@H](C(C)C)N(C)C(=O)[C@@H]1CCN(C(=O)C#CC(C)(C)N3CCC3)C1)C(=O)N1CCC[C@H](N1)C(=O)OCC(C)(C)C2 [Example A476] | < 0.01 | 1 to 10 | 1 to 10 | 1 to 10 | 0.01 to 0.1 | 0.1 to 1 | 1 to 10 | 0.01 to 0.1 | 1 to 10 | < 5 |  |  |
| CCn1c(-c2cccnc2[C@H](C)OC)c2c3cc(ccc31)-c1cccc(c1)C[C@H](NC(=O)[C@H](C(C)C)N(C)C(=O)[C@H]1CCN(C(=O)C#CC3CC(F)(F)CN3C)C1)C(=O)N1CCC[C@H](N1)C(=O)OCC(C)(C)C2 (some centres unmarked) [Example A526] | < 0.01 | 1 to 10 | > 10 | 1 to 10 | 0.01 to 0.1 | 1 to 10 | 1 to 10 | 0.01 to 0.1 | > 10 | < 5 |  |  |
| C=CC(=O)N1CCO[C@@H]2CCN(C(=O)N(C)[C@H](C(=O)N[C@H]3Cc4nc(cs4)-c4ccc5c(c4)c(c(-c4cccnc4[C@H](C)OC)n5CC)CC(C)(C)COC(=O)C4CCCN(N4)C3=O)C(C)C)CC21 (some centres unmarked) [Example A596] | < 0.01 |  |  |  | 0.01 to 0.1 |  |  |  |  | < 5 | 0.01 to 0.1 | 0.01 to 0.1 |
| C=CC(=O)N1CCO[C@H]2CN(C(=O)N(C)[C@H](C(=O)N[C@H]3Cc4cccc(n4)-c4ccc5c(c4)c(c(-c4cccnc4[C@H](C)OC)n5CC)CC(C)(C)COC(=O)C4CCCN(N4)C3=O)C(C)C)C[C@H]21 (some centres unmarked) [Example A597] | < 0.01 |  |  |  | 0.01 to 0.1 |  |  |  |  | < 5 | 0.1 to 1 | 0.1 to 1 |
| CCn1c(-c2cccnc2[C@H](C)OC)c2c3cc(ccc31)-c1cccc(c1)C[C@H](NC(=O)[C@@H](COC1CN(C(=O)C#CC(C)(C)N(C)C(C)C)C1)C(C)C)C(=O)N1CCCC(N1)C(=O)OCC(C)(C)C2 (some centres unmarked) [Example A599] | < 0.01 |  |  |  | 0.01 to 0.1 |  |  |  |  | < 5 | > 10 | > 10 |
| C=CC(=O)Nc1cnc(OC[C@H](C(=O)N[C@H]2Cc3cccc(c3)-c3ccc4c(c3)c(c(-c3cccnc3[C@H](C)OC)n4CC)CC(C)(C)COC(=O)C3CCCN(N3)C2=O)C(C)C)n1C (some centres unmarked) [Example A600] | < 0.01 |  |  |  | < 0.01 |  |  |  |  | < 5 | 1 to 10 | 1 to 10 |
| CO[C@@H](C)c1ncccc1-c1c2c3cc(ccc3n1CC(F)(F)F)-c1csc(n1)C[C@H](NC(=O)[C@H](C(C)C)N(C)C(=O)N1CCC3(CC1)CN(C(=O)/C=C/CF)C3)C(=O)N1CCCC(N1)C(=O)OCC(C)(C)C2 (some centres unmarked) [Example A602] | < 0.01 |  |  |  | 0.01 to 0.1 |  |  |  |  | < 5 | 0.01 to 0.1 | 0.01 to 0.1 |
| CCn1c(-c2cccnc2[C@H](C)OC)c2c3cc(ccc31)N1CCC[C@@H](C[C@H](NC(=O)[C@H](C(C)C)N(C)C(=O)C3CCN(C(=O)C#CC(C)(C)N4CCC4)C3)C(=O)N3CCCC(N3)C(=O)OCC(C)(C)C2)C1 (some centres unmarked) [Example A617] | 0.01 to 0.1 |  |  |  | 0.01 to 0.1 |  |  |  |  | < 5 | > 10 | > 10 |
| C=CC(=O)N1CCC[C@H]2CN(C(=O)N(C)[C@H](C(=O)N[C@H]3Cc4nc(cs4)-c4ccc5c(c4)c(c(-c4cccnc4[C@H](C)OC)n5CC)CC(C)(C)COC(=O)C4CCCN(N4)C3=O)C(C)C)C[C@H]21 (some centres unmarked) [Example A618] | 0.01 to 0.1 |  |  |  | 0.1 to 1 |  |  |  |  | < 5 | 0.1 to 1 | 0.1 to 1 |
| C=CC(=O)N1CCC[C@@H]2CN(C(=O)N(C)[C@H](C(=O)N[C@H]3Cc4nc(cs4)-c4ccc5c(c4)c(c(-c4cccnc4[C@H](C)OC)n5CC)CC(C)(C)COC(=O)C4CCCN(N4)C3=O)C(C)C)C[C@@H]21 (some centres unmarked) [Example A619] | 0.01 to 0.1 |  |  |  | 0.1 to 1 |  |  |  |  | < 5 | 0.1 to 1 | 0.1 to 1 |
| C=CC(=O)N1CC2(C1)OCCN2C(=O)N(C)[C@H](C(=O)N[C@H]1Cc2nc(cs2)-c2ccc3c(c2)c(c(-c2cccnc2[C@H](C)OC)n3CC)CC(C)(C)COC(=O)C2CCCN(N2)C1=O)C(C)C (some centres unmarked) [Example A620] | < 0.01 |  |  |  | < 0.01 |  |  |  |  | < 5 | 0.01 to 0.1 | 0.1 to 1 |
| C=CC(=O)N(C)CCC1CCN(C(=O)N(C)[C@H](C(=O)N[C@H]2Cc3nc(cs3)-c3ccc4c(c3)c(c(-c3cccnc3[C@H](C)OC)n4CC)CC(C)(C)COC(=O)C3CCCN(N3)C2=O)C(C)C)CC1 (some centres unmarked) [Example A621] | < 0.01 |  |  |  | 0.01 to 0.1 |  |  |  |  | < 5 | 0.01 to 0.1 | 0.01 to 0.1 |
